Where “and” joins values, the source holds several entries; their conditions need not be identical. Equal values may be shown once. Inconclusive results and toxic doses are left out. The calls were made as follows: active = survival T/C of 150% or more; inactive = T/C below 125% in these data. Square brackets hold non-standard residues; d marks the D form. Peptide text beside a SMILES is read from it. ξ: configuration not given here. ξhCys = NC(CCS)C(=O)O
Tested on: P388 leukemia ip, CD2F1 mice, survival T/C
Experiment: NCI In Vivo Anticancer Drug Screen. Data for tumor model P388 Leukemia (intraperitoneal) in CD2F1 (CDF1) mice
Settings: endpoint: median survival time, higher = longer survival
Procedure, shortened: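 Mice carrying the transplanted tumor received test compound or vehicle. Survival was recorded in each group, and the value is the treated-group measurement divided by that of the vehicle-treated control group.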

[1] = dose: 12.5 mg/kg/injection, schedule: Q01DX009 (ip), vehicle: Klucel (hydroxypropylcellulose) (HPC)
[2] = dose: 25.0 mg/kg/injection, schedule: Q01DX009 (ip), vehicle: Klucel (hydroxypropylcellulose) (HPC)
[3] = dose: 50.0 mg/kg/injection, schedule: Q01DX009 (ip), vehicle: Klucel (hydroxypropylcellulose) (HPC)
[4] = dose: 50.0 mg/kg/injection, schedule: Q01DX005 (ip), vehicle: saline with Tween-80
[5] = dose: 100.0 mg/kg/injection, schedule: Q01DX005 (ip), vehicle: saline with Tween-80
[6] = dose: 200.0 mg/kg/injection, schedule: Q01DX005 (ip), vehicle: saline with Tween-80
[7] = dose: 50.0 mg/kg/injection, schedule: Q01DX009 (ip), vehicle: saline
[8] = dose: 100.0 mg/kg/injection, schedule: Q01DX009 (ip), vehicle: saline
[9] = dose: 100.0 mg/kg/injection, schedule: Q04DX003 (ip), vehicle: Klucel (hydroxypropylcellulose) (HPC)
[10] = dose: 200.0 mg/kg/injection, schedule: Q04DX003 (ip), vehicle: Klucel (hydroxypropylcellulose) (HPC)
[11] = dose: 40.0 mg/kg/injection, schedule: Q01DX009 (ip), vehicle: saline with Tween-80
[12] = dose: 80.0 mg/kg/injection, schedule: Q01DX009 (ip), vehicle: saline with Tween-80
[13] = dose: 60.0 mg/kg/injection, schedule: Q01DX005 (ip), vehicle: Klucel (hydroxypropylcellulose) (HPC)
[14] = dose: 120.0 mg/kg/injection, schedule: Q01DX005 (ip), vehicle: Klucel (hydroxypropylcellulose) (HPC)
[15] = dose: 240.0 mg/kg/injection, schedule: Q01DX005 (ip), vehicle: Klucel (hydroxypropylcellulose) (HPC)
[16] = dose: 200.0 mg/kg/injection, schedule: Q01DX009 (ip), vehicle: saline
[17] = dose: 25.0 mg/kg/injection, schedule: Q01DX009 (ip), vehicle: saline with Tween-80
[18] = dose: 50.0 mg/kg/injection, schedule: Q01DX009 (ip), vehicle: saline with Tween-80
[19] = dose: 100.0 mg/kg/injection, schedule: Q01DX009 (ip), vehicle: saline with Tween-80
[20] = dose: 200.0 mg/kg/injection, schedule: Q01DX009 (ip), vehicle: saline with Tween-80
[21] = dose: 60.0 mg/kg/injection, schedule: Q01DX005 (ip), vehicle: saline with Tween-80
[22] = dose: 120.0 mg/kg/injection, schedule: Q01DX005 (ip), vehicle: saline with Tween-80
[23] = dose: 240.0 mg/kg/injection, schedule: Q01DX005 (ip), vehicle: saline with Tween-80

Measured: T/C

CC12CCC3c4ccc(OC(=O)C56C=CC(=O)C5C5C=CC6CC5)cc4CCC3C1CCC2=O (stereo unspecified)
inactive: dose: 25.0 mg/kg/injection, schedule: Q01DX005 (ip), vehicle: distilled water + Tween-80 91 % of control | dose: 50.0 mg/kg/injection, schedule: Q01DX005 (ip), vehicle: distilled water + Tween-80 95 % of control | dose: 100.0 mg/kg/injection, schedule: Q01DX005 (ip), vehicle: distilled water + Tween-80 87 % of control | dose: 200.0 mg/kg/injection, schedule: Q01DX005 (ip), vehicle: distilled water + Tween-80 95 % of control

CCCCCCCCCCCCCC[N+](C)([O-])CCCCCC[N+](C)([O-])CCCCCCCCCCCCCC (stereo unspecified)
inactive: [1] 94 % of control | [2] 100 % of control | [3] 92 % of control and 93 % of control

CC1(C)C(=O)c2cc3ccccc3nc2-c2ccccc21
inactive: [4] 100 % of control | [5] 99 % of control | [6] 105 % of control

O=C1C=CC(=O)C2=C1C1CCCC1C1CCCC21 (stereo unspecified)
inactive: dose: 25.0 mg/kg/injection, schedule: Q01DX009 (ip), vehicle: saline 123 % of control | [7] 105 % of control | [8] 113 % of control

COC(=O)C#CBr
inactive: dose: 3.13 mg/kg/injection, schedule: Q04DX003 (ip), vehicle: saline 100 % of control | dose: 6.25 mg/kg/injection, schedule: Q04DX003 (ip), vehicle: saline 100 % of control

C1CCCCCC2OC2CCCC1 (stereo unspecified)
inactive: dose: 50.0 mg/kg/injection, schedule: Q04DX003 (ip), vehicle: Klucel (hydroxypropylcellulose) (HPC) 107 % of control | [9] 112 % of control | [10] 107 % of control

Cc1ccc(=O)c2ccsc2c1
inactive: [9] 105 % of control | [10] 94 % of control

S=C=[N][Sn]([N]=C=S)([c]1ccccc1)[c]1ccccc1.c1ccc2nc(-c3ccc4ccccc4n3)ccc2c1
inactive: dose: 1.87 mg/kg/injection, schedule: Q01DX005 (ip), vehicle: Klucel (hydroxypropylcellulose) (HPC) 97 % of control | dose: 3.75 mg/kg/injection, schedule: Q01DX005 (ip), vehicle: Klucel (hydroxypropylcellulose) (HPC) 109 % of control and 110 % of control

C=C1C(=O)OC2/C=C(\C)C(O)CC(O)C(C)(O)CC(OC(=O)/C(C)=C/C)C12 (stereo unspecified)
inactive: dose: 10.0 mg/kg/injection, schedule: Q01DX009 (ip), vehicle: saline with Tween-80 102 % of control | dose: 20.0 mg/kg/injection, schedule: Q01DX009 (ip), vehicle: saline with Tween-80 100 % of control and 119 % of control and 97 % of control | [11] 101 % of control and 113 % of control and 123 % of control | [12] 113 % of control and 115 % of control

C[CH2][Sn]([CH2]C)([N]=C=S)[N]=C=S.c1ccc2nc(-c3ccc4ccccc4n3)ccc2c1
inactive: [13] 95 % of control | [14] 96 % of control | [15] 98 % of control

COc1cc(=O)cc2n(c1=O)CCC2
inactive: dose: 60.0 mg/kg/injection, schedule: Q01DX005 (ip), vehicle: saline 94 % of control | dose: 120.0 mg/kg/injection, schedule: Q01DX005 (ip), vehicle: saline 94 % of control | dose: 240.0 mg/kg/injection, schedule: Q01DX005 (ip), vehicle: saline 92 % of control

COc1ccccc1C1OC2=C(Nc3ccccc3N2)C1=O (stereo unspecified)
inactive: dose: 30.0 mg/kg/injection, schedule: Q01DX005 (ip), vehicle: Klucel (hydroxypropylcellulose) (HPC) 101 % of control | [13] 97 % of control and 98 % of control | [14] 91 % of control | [15] 92 % of control

COc1ccc(CCCc2cc3c(cc2OC)OCO3)cc1
inactive: [13] 100 % of control | [14] 100 % of control | [15] 97 % of control

Cn1ccn(C)c1=S
inactive: [7] 107 % of control | [8] 97 % of control | [16] 101 % of control

COc1cc2c(c(OC)c1OC)-c1ccc(O)c(=O)cc1C(N)CC2 (stereo unspecified)
inactive: dose: 3.12 mg/kg/injection, schedule: Q01DX008 (ip), vehicle: saline 101 % of control and 97 % of control | dose: 6.25 mg/kg/injection, schedule: Q01DX008 (ip), vehicle: saline 100 % of control and 102 % of control | dose: 12.5 mg/kg/injection, schedule: Q01DX008 (ip), vehicle: saline 102 % of control and 105 % of control | dose: 25.0 mg/kg/injection, schedule: Q01DX008 (ip), vehicle: saline 102 % of control and 105 % of control | dose: 50.0 mg/kg/injection, schedule: Q01DX008 (ip), vehicle: saline 105 % of control and 110 % of control | dose: 100.0 mg/kg/injection, schedule: Q01DX008 (ip), vehicle: saline 109 % of control and 113 % of control

N#Cc1cc([N+](=O)[O-])cnc1Sc1ncccn1
inactive: dose: 6.25 mg/kg/injection, schedule: Q01DX009 (ip), vehicle: Klucel (hydroxypropylcellulose) (HPC) 108 % of control | [1] 104 % of control | [2] 90 % of control

O=[N+]([O-])Nc1ccccn1
inactive: dose: 100.0 mg/kg/injection, schedule: Q04DX002 (ip), vehicle: saline 114 % of control | dose: 200.0 mg/kg/injection, schedule: Q04DX002 (ip), vehicle: saline 110 % of control | dose: 400.0 mg/kg/injection, schedule: Q04DX002 (ip), vehicle: saline 97 % of control

CCCNP1(NCCC)=NP(NCCC)(NCCC)=NP(NCCC)(NCCC)=NP(NCCC)(NCCC)=N1
inactive: dose: 12.5 mg/kg/injection, schedule: Q01DX005 (ip), vehicle: saline with Tween-80 104 % of control | dose: 25.0 mg/kg/injection, schedule: Q01DX005 (ip), vehicle: saline with Tween-80 99 % of control | [4] 100 % of control and 104 % of control

CC1(C)C=Cc2cc(O)ccc2O1
inactive: [17] 99 % of control | [18] 90 % of control | [19] 88 % of control | [20] 86 % of control

CCCN1CN2CCOC2C(C)(C)C1 (stereo unspecified)
inactive: [11] 112 % of control | [12] 114 % of control

CCSCCC(NC(=O)CN)C(=O)O (stereo unspecified) (H-Gly-[ξhCys](Et)-OH)
inactive: [7] 112 % of control | [8] 94 % of control

CC1CC(c2ccccc2)C(c2ccc(Cl)cc2)C(=O)O1 (stereo unspecified)
inactive: [3] 96 % of control | dose: 100.0 mg/kg/injection, schedule: Q01DX009 (ip), vehicle: Klucel (hydroxypropylcellulose) (HPC) 100 % of control | dose: 200.0 mg/kg/injection, schedule: Q01DX009 (ip), vehicle: Klucel (hydroxypropylcellulose) (HPC) 100 % of control

CC(=O)OCN(C)N=Nc1ccc(C(N)=O)cc1
inactive: [13] 92 % of control | [14] 95 % of control | [15] 95 % of control

C/C(=N\Nc1ccc([N+](=O)[O-])cc1[N+](=O)[O-])C1CC1
inactive: [17] 117 % of control | [18] 106 % of control | [19] 108 % of control | [20] 109 % of control

NC(CS(=O)c1ccc(Cl)cc1)C(=O)O (stereo unspecified)
inactive: dose: 6.25 mg/kg/injection, schedule: Q01DX009 (ip), vehicle: saline with Tween-80 95 % of control | dose: 12.5 mg/kg/injection, schedule: Q01DX009 (ip), vehicle: saline with Tween-80 95 % of control | [17] 100 % of control

N#CCCN(CCC#N)c1ccc(CC2C(=O)N(c3cccc(S(=O)(=O)O)c3)N=C2C(=O)O)cc1 (stereo unspecified)
inactive: [21] 93 % of control | [22] 96 % of control | [23] 95 % of control

O=C1CN(CCCCl)CC(=O)N2Cc3ccccc3CN12
inactive: [4] 106 % of control | [5] 101 % of control | [6] 99 % of control

c1ccc(Nc2ccc(CN3CCCCC3)cc2)cc1
inactive: [13] 93 % of control | [14] 99 % of control | [15] 87 % of control

OCC1OC2NC(=S)OC2C1O (stereo unspecified)
inactive: [7] 100 % of control | [8] 100 % of control | [16] 95 % of control

COC(=O)C(=O)c1c(C(=O)OC)nc2nnc(N)n2c1-c1ccc(OC)cc1
inactive: [21] 100 % of control | [22] 107 % of control | [23] 96 % of control

Cc1cc([Se][Se]c2cc(C)c(C)cc2[N+](=O)[O-])c([N+](=O)[O-])cc1C
inactive: [21] 92 % of control | [22] 93 % of control | [23] 91 % of control

From PubChem BioAssay AID330 (DTP/NCI, 2004)
